These results are taken from ChEMBL document CHEMBL4033683, “Dual functional small molecule fluorescent probes for image-guided estrogen receptor-specific targeting coupled potent antiproliferative potency for breast cancer therapy” (Bioorg Med Chem, 2017).

Activity calls are given as the source filed them. The rule behind the calls is not given here. Where only a bound is given, the exact number is not on record here.

In data set [1] the target is T1, Estrogen receptor (Homo sapiens) (UniProt P03372).
T1 sequence (whole entry): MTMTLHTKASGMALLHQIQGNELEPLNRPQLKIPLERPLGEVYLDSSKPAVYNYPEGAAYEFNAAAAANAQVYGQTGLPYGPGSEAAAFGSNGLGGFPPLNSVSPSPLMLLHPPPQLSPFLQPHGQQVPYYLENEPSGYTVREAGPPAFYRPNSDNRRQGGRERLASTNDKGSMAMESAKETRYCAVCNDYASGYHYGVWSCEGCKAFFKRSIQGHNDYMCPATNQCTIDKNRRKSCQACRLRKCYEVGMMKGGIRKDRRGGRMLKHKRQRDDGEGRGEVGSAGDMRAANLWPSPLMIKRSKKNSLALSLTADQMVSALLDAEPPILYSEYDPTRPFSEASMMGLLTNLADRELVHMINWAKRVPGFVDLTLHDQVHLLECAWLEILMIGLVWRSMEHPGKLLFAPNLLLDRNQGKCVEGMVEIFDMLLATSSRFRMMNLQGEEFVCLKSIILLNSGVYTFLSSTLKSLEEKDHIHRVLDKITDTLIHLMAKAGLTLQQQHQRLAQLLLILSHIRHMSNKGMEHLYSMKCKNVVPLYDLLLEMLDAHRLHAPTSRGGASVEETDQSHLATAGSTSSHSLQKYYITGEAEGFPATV
As to the kind of experiment: Agonist activity at ERalpha (unknown origin) expressed in HEK293T cells after 24 hrs by luciferase reporter gene assay. Format: cell-based. (Reporter assays use an easily measured gene product as a stand-in for the process of interest.)

For the next data set, the system named is MDA-MB-231. Kind of data set: Antiproliferative activity against human MDA-MB-231 cells after 72 hrs by MTT assay. Format: functional, cell-based. Particulars: MDA-MB-231, 72 h. On the technique in general: Tetrazolium assays rely on reduction of a dye to a coloured formazan, in cell work by metabolically active cells.
Another data set relates to MDA-MB-453. As to the kind of experiment: Antiproliferative activity against human MDA-MB-453 cells after 72 hrs by MTT assay. The class given is functional, cell-based. Conditions: MDA-MB-453, 72 h.
A further data set has as its system MCF7. Kind of data set: cells. Conditions: Homo sapiens, MCF7, 72 h.
The target of data set [2] is T1, Estrogen receptor (Homo sapiens). Kind of data set: Antagonist activity at ERalpha (unknown origin) expressed in HEK293T cells assessed as inhibition of estradiol-induced response after 24 hrs by luciferase reporter gene assay relative to estradiol. The class given is cell-based.
Data set [3] concerns the target T2, Estrogen receptor beta (Homo sapiens, UniProt Q92731). As to the kind of experiment: Agonist activity at ERbeta (unknown origin) expressed in HEK293T cells after 24 hrs by luciferase reporter gene assay. The class given is cell-based.
Data set [4] concerns the target T2, Estrogen receptor beta. As to the kind of experiment: Agonist activity at ERbeta (unknown origin) expressed in HEK293T cells after 24 hrs by luciferase reporter gene assay relative to estradiol. The class given is cell-based.
The target in data set [5] is T1, Estrogen receptor (Homo sapiens). As to the kind of experiment: Binding affinity to ERalpha (unknown origin) at 1 uM by fluorescence assay.
Data set [6] has the same target. Kind of data set: Binding affinity to ERalpha (unknown origin) at 1 uM in presence of estradiol by fluorescence assay.
Data set [7] has as its target T2, Estrogen receptor beta. As to the kind of experiment: Binding affinity to ERbeta (unknown origin) at 1 uM by fluorescence assay.
For data set [8], the target named is T2, Estrogen receptor beta. As to the kind of experiment: Binding affinity to ERbeta (unknown origin) at 1 uM in presence of estradiol by fluorescence assay.
Data set [9] is filed under the species Homo sapiens. Kind of data set: Binding affinity to ER in human MCF7 cells assessed as increase in fluorescence in nucleus at 10 uM after 2 hrs by confocal laser scanning microscopic method. The class given is cell-based.
Data set [10] is filed under the species Homo sapiens. As to the kind of experiment: Binding affinity to ER in human MCF7 cells assessed as increase in fluorescence in cytosol at 10 uM after 2 hrs by confocal laser scanning microscopic method. The class given is cell-based.
A short description of data set [11]: Drug uptake in human MDA-MB-231 cells at 10 uM after 2 hrs by confocal laser scanning microscopic method. The class given is ADME, cell-based. Conditions: mda-mb-231, 2 h.
The species named for data set [12] is Homo sapiens. Kind of data set: Binding affinity to ER in human MCF7 cells at 10 uM preincubated for 2 hrs followed by estradiol addition measured after 10 mins by confocal laser scanning microscopic method. Format: cell-based.
In the next data set the target is T3, Estrogen receptor (Homo sapiens, UniProt P03372).
T3 sequence (P03372 whole entry): T1 sequence (whole entry)
Kind of data set: Antagonist activity at ERalpha (unknown origin) expressed in HEK293T cells assessed as inhibition of estradiol-induced response after 24 hrs by luciferase reporter gene assay. Format: cell-based.

The species named for data set [13] is Homo sapiens. Kind of data set: Binding affinity to ER in human MCF7 cells at 1 uM up to 4 mins by real time imaging analysis. The class given is cell-based.
The species named for data set [14] is Homo sapiens. Kind of data set: Binding affinity to ER in human MCF7 cells assessed as increase in fluorescence in cytosol at 1 uM up to 4 mins by real time imaging analysis. Format: cell-based.
The species named for data set [15] is Homo sapiens. As to the kind of experiment: Binding affinity to ER in human MCF7 cells assessed as increase in fluorescence in nucleus at 1 uM up to 4 mins by real time imaging analysis. Format: cell-based.
Data set [16] in a line: Drug uptake in cytosol of human MCF7 cells at 1 uM up to 4 mins by real time fluorescence imaging analysis. Format: ADME.
Data set [17] is described as follows: Drug uptake in nucleus of human MCF7 cells at 1 uM up to 4 mins by real time fluorescence imaging analysis. Format: ADME.

T2 sequence (Q92731 whole entry): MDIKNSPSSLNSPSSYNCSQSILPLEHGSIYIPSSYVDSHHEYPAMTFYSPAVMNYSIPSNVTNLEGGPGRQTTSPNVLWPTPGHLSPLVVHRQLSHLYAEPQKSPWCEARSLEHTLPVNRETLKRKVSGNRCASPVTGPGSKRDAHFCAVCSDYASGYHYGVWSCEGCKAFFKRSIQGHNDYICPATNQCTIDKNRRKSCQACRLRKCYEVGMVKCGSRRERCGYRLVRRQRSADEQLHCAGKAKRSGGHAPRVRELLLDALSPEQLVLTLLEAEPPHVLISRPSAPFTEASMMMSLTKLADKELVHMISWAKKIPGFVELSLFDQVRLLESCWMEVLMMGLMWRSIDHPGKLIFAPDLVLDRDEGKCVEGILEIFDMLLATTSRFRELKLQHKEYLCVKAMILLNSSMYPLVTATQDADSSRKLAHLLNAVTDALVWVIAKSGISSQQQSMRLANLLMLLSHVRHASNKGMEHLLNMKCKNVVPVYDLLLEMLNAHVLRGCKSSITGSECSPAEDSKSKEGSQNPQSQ

The term IC50 denotes the point on the concentration scale where inhibition reaches its midpoint. For the compound `CCc1c(-c2ccc(O)c(F)c2)c(=O)oc2cc(O)ccc12`, in [1], the outcome was inactive. For the same compound, the IC50 in the data set on MDA-MB-231 was 48.6 µM; in the data set on MDA-MB-453, 39.8 µM; in the data set on MCF7, 50 µM.

Broadly, the EC50 is the concentration giving half of the maximal effect. A high value points to weaker potency. With `CCc1c(-c2ccc(O)cc2Cl)c(=O)oc2cc(O)ccc12`, the outcome (in data set [1]; in data set [6]; on Estrogen receptor beta [8]; in the data set filed under Homo sapiens [12]) was inactive. The Efficacy in data set [2] amounted to 120%; on Estrogen receptor beta [4] it was 68.2%. Moreover, the EC50 at Estrogen receptor beta [3] turned out to be 0.343 µM. Moreover, the IC50 was greater than 100 µM with MDA-MB-231, 37.2 µM in the data set with MDA-MB-453 and 49.3 µM in the data set with MCF7. Besides, the result (in data set [5]; on Estrogen receptor beta [7]; in the data set listed under Homo sapiens [9]; in the data set listed under Homo sapiens [10]) was Active. The Drug uptake entry in data set [11] is “Not Active”.

On to `O=c1oc2cc(O)ccc2cc1-c1ccc(O)cc1`, for which the outcome in data set [1] was inactive. For the same compound, the Efficacy in data set [2] came out at 101%; on Estrogen receptor beta [4], 138%. This compound came in with an EC50 on Estrogen receptor beta [3] of 0.542 µM. Besides, the IC50 in the data set on MDA-MB-231, in the data set with MDA-MB-453 and with MCF7 was greater than 100 µM each time.

Take `O=c1oc2cc(O)ccc2cc1-c1ccc(O)c(F)c1`: the result in [1] was inactive. Besides, the Efficacy stood at 124% in data set [2] and 66.7% at Estrogen receptor beta [4]. On Estrogen receptor beta [3], this compound had an EC50 of 0.207 µM. For the same compound, the IC50 with MDA-MB-231, in the data set with MDA-MB-453 and with MCF7 was greater than 100 µM each time.

For the compound `CCC(=C(c1ccc(O)cc1)c1ccc(OCCN(C)C)cc1)c1ccccc1`, the values for the IC50 in the data set on MDA-MB-231 and with MDA-MB-453 were 20.1 µM and 10.4 µM, respectively.

For `Cc1cc(O)ccc1-c1c(C)c2ccc(O)cc2oc1=O`, the outcome in [1] was inactive. For the same compound, the IC50 is 0.112 µM at Estrogen receptor, greater than 100 µM in the data set on MDA-MB-231, 55.3 µM in the data set on MDA-MB-453 and greater than 100 µM in the data set with MCF7. In addition, the Efficacy in data set [2] was 65.3%; on Estrogen receptor beta [4], 72.1%. The compound further showed an EC50 at Estrogen receptor beta [3] of 0.011 µM.

Take `CCc1c(-c2ccc(O)cc2F)c(=O)oc2cc(O)ccc12`: the result (in data set [1]; in [6]; at Estrogen receptor beta [8]; in the data set filed under Homo sapiens [12]) was inactive. Further, the IC50 is 0.012 µM on Estrogen receptor, greater than 100 µM in the data set on MDA-MB-231, 8.03 µM with MDA-MB-453 and 16.1 µM in the data set on MCF7. Besides, the Efficacy in [2] was 26.4%; at Estrogen receptor beta [4], -6.9%. Further, the outcome (in [5]; at Estrogen receptor beta [7]; in the data set listed under Homo sapiens [9]; in the data set listed under Homo sapiens [10]; in the data set listed under Homo sapiens [13]; in the data set filed under Homo sapiens [14]) was Active. Besides, in the data set filed under Homo sapiens [15], the outcome was Active. Besides, the Drug uptake result in [11], in [16] and in [17] was “Not Active” each time.

As to `O=c1oc2cc(O)ccc2c(-c2ccc(O)cc2)c1-c1ccc(O)cc1`, the half-maximal inhibitory concentration (IC50) on Estrogen receptor came to 0.222 µM; in the data set on MDA-MB-231, 59.8 µM; with MDA-MB-453, 29.1 µM; with MCF7, 49 µM. The Efficacy in [2] was determined as 15.2%; at Estrogen receptor beta [4] it was 33.4%. The compound also showed an EC50 at Estrogen receptor beta [3] of 0.012 µM.

`O=c1oc2cc(O)ccc2c(-c2ccc(O)c(F)c2)c1-c1ccc(O)c(F)c1`: the result in [1] was inactive. Moreover, the IC50 is 0.219 µM on Estrogen receptor, greater than 100 µM in the data set with MDA-MB-231, 31.7 µM in the data set on MDA-MB-453 and 40.1 µM with MCF7. Besides, the Efficacy in data set [2] was 57.8%; at Estrogen receptor beta [4], -11.2%.

Take `Cc1c(-c2ccc(O)cc2Cl)c(=O)oc2cc(O)ccc12`: the result in data set [1] was inactive. Moreover, the IC50 was 1.24 µM on Estrogen receptor, 46.1 µM in the data set with MDA-MB-231, 26.7 µM in the data set on MDA-MB-453 and 21.6 µM with MCF7. Moreover, the Efficacy turned out to be 84.6% in data set [2] and 12.9% at Estrogen receptor beta [4]. The same compound returned an EC50 at Estrogen receptor beta [3] of 0.894 µM.

Take `C[C@]12CC[C@@H]3c4ccc(O)cc4CC[C@H]3[C@@H]1CC[C@@]2(O)C#Cc1ccc(CNC(=O)c2ccc(-c3c4ccc(=O)cc-4oc4cc(O)ccc34)c(C(=O)O)c2)cc1`: the Drug uptake result in [11] was “Active”. Moreover, the outcome in the data set listed under Homo sapiens [13] was inactive.
